Patent US11051515B2, “3-acyl-benzamides and their use as herbicides” (Bayer Aktiengesellschaft, priority 2017, dated 2021)

How the values were obtained:
[1] = test system: VIOTR; assay: Pre-emergence action against VIOTR; format: in vivo, Viola tricolor; conditions: Dosage 320 g/ha, pre-emergence
From the text: (§1) Seeds of monocotyledonous and dicotyledonous weed plants and crop plants are laid out in sandy loam soil in wood-fiber pots and covered with soil. The compounds of the invention, formulated in the form of wettable powders (WP) or as emulsion concentrates (EC), are then applied to the surface of the covering soil in the form of an aqueous suspension or emulsion at a water application rate equating to […], with addition of 0.2% wetting agent. After the treatment, the pots are placed in a greenhouse and kept under good growth conditions for the trial plants. The damage to the test plants is scored visually after a test period of 3 weeks by comparison with untreated controls (herbicidal activity in percent (%): 100% activity=the plants have died, 0% activity=like control plants).

[2] = test system: ABUTH; assay: Pre-emergence action against ABUTH; format: in vivo, Abutilon theophrasti; conditions: pre-emergence, dosage 320 g/ha, scored visually after 3 weeks vs untreated controls
From the text: as §1

[3] = test system: VIOTR; assay: Post-emergence action against VIOTR; format: in vivo, Viola tricolor; conditions: post-emergence, dosage 80 g/ha
Protocol: (§2) Seeds of monocotyledonous and dicotyledonous weed and crop plants are laid out in sandy loam soil in wood-fiber pots, covered with soil and cultivated in a greenhouse under good growth conditions. 2 to 3 weeks after sowing, the test plants are treated at the one-leaf stage. The compounds of the invention, formulated in the form of wettable powders (WP) or as emulsion concentrates (EC), are then sprayed onto the green parts of the plants in the form of an aqueous suspension or emulsion at a water application rate equating to […], with addition of 0.2% wetting agent. After the test plants have been left to stand in the greenhouse under optimal growth conditions for about 3 weeks, the action of the preparations is assessed visually in comparison to untreated controls (herbicidal action in percent (%): 100% activity=the plants have died, 0% activity=like control plants). […] At the same time, inventive compounds leave Gramineae crops such as barley, wheat, rye, millet/Sorghum, corn or rice virtually undamaged when applied post-emergence, even at high active ingredient dosages. In addition, some substances are also harmless to dicotyledonous crops such as soya, cotton, oilseed rape, sugar beet or potatoes. Some of the compounds according to the invention have high selectivity and are therefore suitable for controlling unwanted vegetation in agricultural crops by the post-emergence method. The data of Tables B18 to B34 below illustrate, in an exemplary manner, the […] herbicidal action of the compounds according to the invention, the herbicidal activity being stated in percent.

[4] = test system: STEME; assay: Pre-emergence action against STEME; format: in vivo, Stellaria media; conditions: Dosage 320 g/ha, pre-emergence
From the text: as §1

[5] = test system: ABUTH; assay: Post-emergence action against ABUTH; format: in vivo, Abutilon theophrasti; conditions: post-emergence, dosage 80 g/ha, visual assessment about 3 weeks after treatment vs untreated controls
Protocol: as §2

[6] = test system: MATIN; assay: Pre-emergence action against MATIN; format: in vivo, Matricaria inodora; conditions: Dosage 320 g/ha, pre-emergence
From the text: as §1

[7] = test system: AMARE; assay: Pre-emergence action against AMARE; format: in vivo, Amaranthus retroflexus; conditions: pre-emergence, dosage 320 g/ha, scored visually after 3 weeks vs untreated controls
From the text: as §1

[8] = test system: PHBPU; assay: Pre-emergence action against PHBPU; format: in vivo, Pharbitis purpurea; conditions: Dosage 320 g/ha, pre-emergence
From the text: as §1

[9] = test system: ECHCG; assay: Post-emergence action against ECHCG; format: in vivo, Echinochloa crus-galli; conditions: post-emergence, dosage 80 g/ha, visual assessment about 3 weeks after treatment vs untreated controls
Protocol: as §2

[10] = test system: VERPE; assay: Pre-emergence action against VERPE; format: in vivo, Veronica persica; conditions: Dosage 320 g/ha, pre-emergence
From the text: as §1

[11] = test system: ECHCG; assay: Pre-emergence action against ECHCG; format: in vivo, Echinochloa crus-galli; conditions: pre-emergence, dosage 320 g/ha, scored visually after 3 weeks vs untreated controls
From the text: as §1

[12] = test system: VERPE; assay: Post-emergence action against VERPE; format: in vivo, Veronica persica; conditions: dosage 80 g/ha
Protocol: as §2

[13] = test system: AMARE; assay: Post-emergence action against AMARE; format: in vivo, Amaranthus retroflexus; conditions: post-emergence, dosage 80 g/ha, visual assessment about 3 weeks after treatment vs untreated controls
Protocol: as §2

[14] = test system: ALOMY; assay: Pre-emergence action against ALOMY; format: in vivo, Alopecurus myosuroides; conditions: dosage 320 g/ha; pre-emergence; scored visually after 3 weeks vs untreated controls; 100% = plants have died, 0% = like control plants
From the text: as §1

[15] = test system: STEME; assay: Post-emergence action against STEME; format: in vivo, Stellaria media; conditions: post-emergence, dosage 80 g/ha
Protocol: as §2

[16] = test system: SETVI; assay: Pre-emergence action against SETVI; format: in vivo, Setaria viridis; conditions: pre-emergence, dosage 320 g/ha, scored visually after 3 weeks vs untreated controls
From the text: as §1

[17] = test system: SETVI; assay: Post-emergence action against SETVI; format: in vivo, Setaria viridis; conditions: post-emergence, dosage 80 g/ha, visual assessment about 3 weeks after treatment vs untreated controls
Protocol: as §2

[18] = test system: PHBPU; assay: Post-emergence action against PHBPU; format: in vivo, Pharbitis purpurea; conditions: post-emergence, dosage 80 g/ha
Protocol: as §2

[19] = test system: MATIN; assay: Post-emergence action against MATIN; format: in vivo, Matricaria inodora; conditions: post-emergence, dosage 80 g/ha, visual assessment about 3 weeks after treatment vs untreated controls
Protocol: as §2

[20] = test system: CYPES; assay: Pre-emergence action against CYPES; format: in vivo, Cyperus esculentus; conditions: pre-emergence, dosage 320 g/ha, scored visually after 3 weeks vs untreated controls
From the text: as §1

[21] = test system: AVEFA; assay: Pre-emergence action against AVEFA; format: in vivo, Avena fatua; conditions: dosage 320 g/ha, scored visually after 3 weeks vs untreated controls
From the text: as §1

Row | Structure (SMILES) | Pre-emergence action against VIOTR [1] [%] | Pre-emergence action against ABUTH (herbicidal activity) [2] [%] | Post-emergence action against VIOTR [3] | Pre-emergence action against STEME [4] [%] | Post-emergence action against ABUTH (herbicidal action in percent) [5] [%] | Pre-emergence action against MATIN [6] [%] | Pre-emergence action against AMARE (herbicidal activity) [7] [%] | Pre-emergence action against PHBPU [8] [%] | Post-emergence action against ECHCG (herbicidal action in percent) [9] [%] | Pre-emergence action against VERPE [10] [%] | Pre-emergence action against ECHCG (herbicidal activity) [11] [%] | Post-emergence action against VERPE [12] | Post-emergence action against AMARE (herbicidal action in percent) [13] [%] | Pre-emergence action against ALOMY (herbicidal activity in percent) [14] [%] | Post-emergence action against STEME [15] | SETVI (Table B8, pre-emergence herbicidal activity) [16] [%] | Post-emergence action against SETVI (herbicidal action in percent) [17] [%] | Post-emergence action against PHBPU [18] | Post-emergence action against MATIN (herbicidal action in percent) [19] [%] | Pre-emergence action against CYPES (herbicidal activity) [20] [%] | also measured
1 | CCCn1nnnc1NC(=O)c1ccc(C(F)(F)F)c(C(=O)CC)c1C [3-15] | 100 | 100 | 90 | 100 | 90 | 100 | 100 | 80 | 100 | 100 | 100 | 90 | 90 | 80 | 100 | 100 | 100 | 90 | 100 | – | –
2 | CCn1nnnc1NC(=O)c1ccc(C(F)(F)F)c(C(=O)c2cc(F)cc(F)c2)c1Cl [2-286] | 100 | 80 | 80 | – | 80 | – | 100 | 80 | 80 | – | – | – | 90 | – | – | – | – | 90 | – | – | –
3 | CCn1nnnc1NC(=O)c1ccc(C)c(C(=O)C2CC2)c1Cl [2-136] | – | 90 | 80 | 90 | – | 100 | 100 | 100 | – | 90 | – | – | – | 90 | 80 | – | – | 90 | 90 | – | –
4 | CCCn1nnnc1NC(=O)c1ccc(C(F)(F)F)c(C(=O)COC)c1Cl [3-144] | 100 | 100 | 80 | 100 | 90 | 100 | 100 | 80 | 80 | 100 | 100 | 80 | 90 | 90 | 100 | 100 | 100 | 100 | 90 | 100 | Pre-emergence action against AVEFA (herbicidal activity) [21]: 80%
5 | CCCn1nnnc1NC(=O)c1ccc(C)c(C(=O)C2CC2)c1C [3-3] | – | 80 | – | 90 | – | 100 | 100 | – | 100 | – | 100 | – | 100 | 90 | 80 | 90 | – | – | – | 90 | –
